Measurements as given in US8802712B2, “Pyrazoloquinolines” (Merck Patent GmbH, priority 2010, dated 2014).
Where two headings read alike, the source gives them in different places.

Key:
DNA-PK [1] = molecular target: T1, DNA-PK (Homo sapiens (Human), UniProt P78527); conditions: 5.0 mM ATP; cited from earlier work
mammal cells = conditions: in cellular terms; cited from earlier work
[2] = system: colorectal carcinoma cell line HCT116; test: Cellular Colony Growth Test with X-ray irradiation; assay type: cell-based; conditions: Homo sapiens, HCT-116, 4.8 Gy X-rays
Description: Cellular Colony Growth Test The colorectal carcinoma cell line HCT116 was cultivated in MEM alpha medium with 10% oif foetal calf serum, 1 mM sodium pyruvate and 2 mM glutamine at 37° C. and 10% CO2. The cells were detached from the base of the culture vessels with the aid of trypsine/EDTA, centrifuged off in centrifuge tubes and taken up in fresh medium. The cell density was subsequently determined. 300 cells were sown out in 6-well cell culture plates in 2 ml of culture medium and cultivated overnight. Next day, the cells were treated with test substances for one hour before the cell culture plates were treated with defined doses of X-rays (in general 0, 2.4, 4.8, 12 Gray; irradiation instrument: Faxitron RX-650; Faxitron X-Ray LLC, USA). In order to determine the dose/effect relationships, the cells were treated with various concentrations of a test substance. After irradiation, the cells are cultivated for a further 24 hours in the presence of the test substance, the culture medium was then replaced with culture medium without test substance, and the cells were cultivated for a further 6-8 days. The cell colonies formed were subsequently stained with the aid of Crystal Violet and counted in a colony counter (Gelcount, Oxford Optronics, UK). Dose/effect curves, in particular IC50 values, were determined using a curve adaptation function for nonlinear dose/effect relationships.

DNA-PK [3] = molecular target: T1, DNA-PK; test: DNA-PK/Biochemical Assay (FlashPlate kinase assay); conditions: 5 μM ATP, 90 min, room temperature
Description: The kinase assay was carried out in streptavidin-coated […] microtitre FlashPlates®. To this end, 1.5 μg of the DNA-PK/protein complex and 100 ng of biotinylated substrate, such as, for example, […] biotin-NH2 (“biotin-DNA-PK peptide”), in a total volume of 36.5 μl (34.25 mM HEPES/KOH, 7.85 mM Tris-HCl, 68.5 mM KCl, 5 μM ATP, 6.85 mM MgCl2, 0.5 mM EDTA, 0.14 mM EGTA, 0.69 mM DTT, pH 7.4), were incubated at room temperature for 90 min with 500 ng of DNA from calf thymus, 0.1 μCi of 33P-ATP and 1.8% of DMSO per well with or without the test compound. The reaction was stopped using 50 μl/well of 200 mM EDTA. After incubation for a further 30 min at room temperature, the liquid was removed. Each well was washed three times with 100 μl of 0.9% sodium chloride solution. A non-specific reaction (blank value) was determined using 10 μM of a proprietary kinase inhibitor. The radioactivity measurement was carried out by means of a TopCount. IC50 values were calculated in RS1. • Literature: Kashishian et al. (2003) Molecular Cancer Therapeutics 1257.

[4] = system: CHK2 phosphorylation at threonine 68 in HCT116 cells; test: Cellular CHK2 Phosphorylation at Threonine 68; assay type: cell-based; conditions: Homo sapiens, HCT-116, 6 h; HCT116, 10 μM bleomycin, six hours, ELISA; read-out: IC50 (CHK2 phospho-threonine 68)
Description: Cellular CHK2 Phosphorylation at Threonine 68
HCT116 cells were cultivated in MEM alpha medium with 10% of foetal calf serum, 1 mM sodium pyruvate and 2 mM glutamine at 37° C. and 10% CO2. The cells were detached from the base of the culture vessels with the aid of trypsine/EDTA, centrifuged off in centrifuge tubes and taken up in fresh medium. The cell density was subsequently determined. 50,000 cells were sown per cavity of a 96-well cell culture plate in 0.1 ml of culture medium and cultivated overnight. Next day, 10 μM bleomycin and test substances in fresh culture medium were added to the cells and these were cultivated for a further six hours. After lysis of the cells, phospho-threonine 68 of the CHK2 kinase was detected in the lysates with the aid of a phospho-CHK2 (Thr68)-specific ELISA detection system (Catalogue No. 7037, Cell Signaling Technologies, USA). The ELISA colour reaction was measured spectrophotometrically at 450 nm. The extinction of the unstimulated controls (vehicle control without bleomycin) was subtracted from the extinction values of the treatment groups. The controls which were treated with bleomycin were set equal to 100% and all other extinction values were set in relation thereto. IC50 values were determined with the aid of the GraphPad Prism statistics program (GraphPad Software, USA) or Assay Explorer (Symyx Technologies Inc., USA).

DNA-PK [5] = molecular target: T1, DNA-PK; conditions: ATP-competitive; cited from earlier work
[6] = system: kinases of the PI3K isoenzyme family; conditions: cited from earlier work

Row | SMILES | IC50 (DNA-PK [3]) [nM] | melting point | other results
1 | O=c1cc(N2CCOCC2)oc2c(-c3ccccc3)cccc12 [LY294002] | – | – | IC50 (DNA-PK [1]): 1250 nM; increase in sensitivity to ionising irradiation (mammal cells): only a weak increase in sensitivity
2 | COc1cc2ncc3c(c(-c4ccc(C#N)cc4F)nn3C)c2cc1OC [Compound 90, 4-(7,8-Dimethoxy-3-methyl-3H-pyrazolo-[3,4-c]quinolin-1-yl)-3-fluorobenzonitrile] | – | – | IC50 [2]: 100 to 500 nM
3 | CCN1CCN(CCNC(=O)C(Oc2cc3c(cc2OC)ncc2c3c(-c3ccc(C#N)cc3)nn2C)c2ccc(F)cc2)CC1 (stereo not shown) [Compound 48, 2-[1-(4-Cyano-phenyl)-7-methoxy-3-methyl-3H-pyrazolo-[3,4-c]quinolin-8-yloxy]-N-[2-(4-ethyl-piperazin-1-yl)ethyl]-2-(4-fluorophenyl)-acetamide] | 100 to 500 | 110 to 112 °C | –
4 | COc1cc2c(cc1O)ncc1c2c(-c2ccc(C#N)cc2)nn1C [Compound 4, 4-(7-Hydroxy-8-methoxy-3-methyl-3H-pyrazolo-[3,4-c]quinolin-1-yl)-benzonitrile] | < 100 | 288.9 °C | –
5 | COc1cc2ncc3[nH]nc(-c4ccc(C#N)c(N5CCCC5)c4)c3c2cc1OC [Compound 70, 4-(7,8-Dimethoxy-3H-pyrazolo[3,4-c]quinolin-1-yl)-2-pyrrolidin-1-yl-benzonitrile] | < 100 | 291 °C (dec.) | –
6 | CCn1nc(-c2ccc(C#N)cc2)c2c3cc(OC)c(OC)cc3ncc21 [Compound 56, 4-(7,8-Dimethoxy-3-ethyl-3H-pyrazolo[3,4-c]quinolin-1-yl)-benzonitrile] | < 100 | 227.4 °C | –
7 | COc1cc2ncc3c(c(-c4ccc(C#N)cc4F)nn3C)c2cc1OC(C(N)=O)c1ccccc1 (stereo not shown) [Compound 91, 2-[1-(4-Cyano-2-fluoro-phenyl)-7-methoxy-3-methyl-3H-pyrazolo[3,4-c]-quinolin-8-yloxy]-2-phenyl-acetamide] | – | – | IC50 [4]: 100 to 500 nM
8 | COc1cc2ncc3c(c(-c4ccc(C#N)cc4)nn3C)c2cc1OC(C(N)=O)c1ccc(F)cc1 (stereo not shown) [Compound 8, 2-[1-(4-Cyanophenyl)-7-methoxy-3-methyl-3H-pyrazolo[3,4-c]quinolin-8-yloxy]-2-(4-fluorophenyl)-acetamide] | < 100 | 249.2 °C | –
9 | COc1cc2ncc3c(c(-c4ccc(C#N)cc4)nn3C)c2cc1OCCN(C)C [Compound 40, 4-[8-(2-Dimethylamino-ethoxy)-7-methoxy-3-methyl-3H-pyrazolo[3,4-c]quinolin-1-yl]benzonitrile] | > 100 | 212.2 °C | –
10 | O=c1cc(N2CCOCC2)oc2c(-c3cccc4c3sc3ccccc34)cccc12 [NU-7441] | – | – | IC50 (DNA-PK [5]): 20 nM
11 | CCN1CCN(CC(=O)Nc2ccc(-c3cccc4c(=O)cc(N5CCOCC5)oc34)c3sc4ccccc4c23)CC1 [KU-0060648] | – | – | inhibition of kinases of the PI3K isoenzyme family [6]: potently inhibited
12 | COc1cc2ncc3c(c(-c4ccc(C#N)cc4F)nn3C)c2cc1-c1cc[nH]c1 [Compound 89, 3-Fluoro-4-[7-methoxy-3-methyl-8-(1H-pyrrol-3-yl)-3H-pyrazolo[3,4-c]-quinolin-1-yl]-benzonitrile] | < 100 | – | –
13 | COc1cc2ncc3c(c(-c4ccc(C#N)cc4)nn3C)c2cc1OCc1cccc(-c2csc(C)n2)c1 [Compound 45, 4-{7-Methoxy-3-methyl-8-[3-(2-methylthiazol-4-yl)-benzyloxy]-3H-pyrazolo-[3,4-c]quinolin-1-yl}-benzonitrile] | 100 to 500 | – | –
14 | COc1cc2ncc3c(c(-c4ccc(C#N)cc4)nn3C)c2cc1OCc1ccnc(N)c1 [Compound 33, 4-[8-(2-Aminopyridin-4-ylmethoxy)-7-methoxy-3-methyl-3H-pyrazolo[3,4-c]-quinolin-1-yl]benzonitrile] | < 100 | – | –
15 | COc1cc2ncc3c(c(-c4ccc(C#N)cc4)nn3C)c2cc1OC(C(=O)O)c1ccccc1 (stereo not shown) [Compound 20, [1-(4-Cyanophenyl)-7-methoxy-3-methyl-3H-pyrazolo[3,4-c]quinolin-8-yloxy]phenylacetic acid] | < 100 | – | –
